The values below come from patent publication US9550772B2, “Azaindole derivatives as multi kinase inhibitors” (ORIBASE PHARMA, priority 2012, dated 2017).

Where two headings read alike, the source gives them in different places. Where only a bound is given, the exact number is not on record here.

One assay concerns the target T1, KDR (VEGFR2) (Homo sapiens, UniProt P35968).
T1 construct: purchased Invitrogen
As to the kind of experiment: In vitro kinase assay (Z'-LYTE, Invitrogen). It counts as biochemical. The following applies: compound at 100 nM, ATP Km apparent, read-out: % of inhibition of the kinase compared to the control. On the procedure: (§1) The inhibitory activity of the compounds on 7 kinases (BRAF, EGFR (ErbB1), EGFR (ErbB1) T790M L858R, FGFR2, KDR (VEGFR2), PDGFRA (PDGFR alpha), SRC) was evaluated by Invitrogen using the Z′-LYTE® technology. Briefly, the Z′-LYTE® biochemical assay employs a fluorescence-based, coupled-enzyme format and is based on the differential sensitivity of phosphorylated and non-phosphorylated peptides to proteolytic cleavage. The peptide substrate is labeled with two fluorophores—one at each end—that make up a FRET pair. A ratiometric method, which calculates the ratio (the Emission Ratio) of donor emission to acceptor emission after excitation of the donor fluorophore at 400 nm, is used to quantitate reaction progress.
(§2) The compounds are screened in 1% DMSO (final) in the well. For 10 point titrations, 3-fold serial dilutions are conducted from the starting concentration. All Peptide/Kinase Mixtures are diluted to a 2× working concentration in the appropriate Kinase Buffer. All ATP Solutions are diluted to a 4× working concentration in Kinase Buffer (50 mM HEPES pH 7.5, 0.01% BRIJ-35, 10 mM MgCl2, 1 mM EGTA). ATP Km apparent is previously determined using a Z′-LYTE® assay.
(§3) Each compound was incubated at a concentration of 100 nM and the tables 21 to 27 summarize the results obtained showing the inhibitory power of a compound.

The target in the next assay is T2, SRC (Homo sapiens, UniProt P12931).
T2 construct: purchased Invitrogen
T2 sequence (P12931 whole entry): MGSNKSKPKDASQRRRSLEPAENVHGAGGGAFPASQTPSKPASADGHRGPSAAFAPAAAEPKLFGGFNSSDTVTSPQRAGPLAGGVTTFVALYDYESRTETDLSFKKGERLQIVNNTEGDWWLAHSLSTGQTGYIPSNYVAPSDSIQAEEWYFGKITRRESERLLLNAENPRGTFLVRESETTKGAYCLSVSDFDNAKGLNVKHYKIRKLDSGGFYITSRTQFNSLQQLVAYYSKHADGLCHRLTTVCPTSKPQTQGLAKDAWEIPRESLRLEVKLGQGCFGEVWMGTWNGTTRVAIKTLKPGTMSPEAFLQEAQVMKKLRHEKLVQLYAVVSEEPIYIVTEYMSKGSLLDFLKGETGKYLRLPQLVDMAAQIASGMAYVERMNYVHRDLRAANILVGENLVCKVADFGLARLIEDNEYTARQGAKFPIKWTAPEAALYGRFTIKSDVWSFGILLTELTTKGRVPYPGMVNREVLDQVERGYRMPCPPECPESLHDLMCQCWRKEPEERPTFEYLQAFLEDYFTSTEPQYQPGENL
As to the kind of experiment: In vitro kinase assay (Z'-LYTE, Invitrogen). It counts as biochemical. The conditions noted are these: compound at 100 nM, ATP Km apparent, read-out: % of inhibition of the kinase compared to the control. On the procedure:
as §1, §2, §3

A further assay addresses T3, BRAF (Homo sapiens, UniProt P15056).
T3 construct: purchased Invitrogen
As to the kind of experiment: In vitro kinase assay (Z'-LYTE, Invitrogen). Type of assay: biochemical. The following applies: compound at 100 nM, ATP Km apparent, read-out: % of inhibition of the kinase compared to the control. On the procedure:
as §1, §2, §3

In another assay the target is T4, FGFR2 (Homo sapiens, UniProt P21802).
T4 construct: purchased Invitrogen
T4 sequence (P21802 22-821): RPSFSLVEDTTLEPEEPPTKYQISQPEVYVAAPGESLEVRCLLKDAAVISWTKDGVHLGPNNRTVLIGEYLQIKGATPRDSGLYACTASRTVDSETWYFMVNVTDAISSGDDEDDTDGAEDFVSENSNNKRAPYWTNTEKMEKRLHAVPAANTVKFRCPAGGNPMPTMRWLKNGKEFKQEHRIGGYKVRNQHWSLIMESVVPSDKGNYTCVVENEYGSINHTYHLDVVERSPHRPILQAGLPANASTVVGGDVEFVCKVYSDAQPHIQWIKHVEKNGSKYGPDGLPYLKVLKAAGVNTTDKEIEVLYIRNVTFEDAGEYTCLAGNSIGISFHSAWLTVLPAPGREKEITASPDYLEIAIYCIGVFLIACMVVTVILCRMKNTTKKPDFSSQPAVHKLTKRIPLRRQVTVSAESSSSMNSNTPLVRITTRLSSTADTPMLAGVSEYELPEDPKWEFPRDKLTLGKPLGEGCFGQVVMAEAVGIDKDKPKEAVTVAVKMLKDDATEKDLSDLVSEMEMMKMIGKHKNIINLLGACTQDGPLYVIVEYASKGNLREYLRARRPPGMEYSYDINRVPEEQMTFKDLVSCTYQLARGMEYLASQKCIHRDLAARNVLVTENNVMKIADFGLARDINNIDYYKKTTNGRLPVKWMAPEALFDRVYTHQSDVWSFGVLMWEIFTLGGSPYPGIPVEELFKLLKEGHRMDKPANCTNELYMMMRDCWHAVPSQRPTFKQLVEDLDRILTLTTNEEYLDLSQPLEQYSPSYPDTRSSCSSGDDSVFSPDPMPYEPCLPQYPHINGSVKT
Briefly: In vitro kinase assay (Z'-LYTE, Invitrogen). It counts as biochemical. The conditions noted are these: compound at 100 nM, ATP Km apparent, read-out: % of inhibition of the kinase compared to the control. On the procedure: as §1, §2, §3

The target of a further assay is T5, PDGFRA (PDGFR alpha) (Homo sapiens, UniProt P16234).
T5 construct: purchased Invitrogen
T5 sequence (P16234 24-1089): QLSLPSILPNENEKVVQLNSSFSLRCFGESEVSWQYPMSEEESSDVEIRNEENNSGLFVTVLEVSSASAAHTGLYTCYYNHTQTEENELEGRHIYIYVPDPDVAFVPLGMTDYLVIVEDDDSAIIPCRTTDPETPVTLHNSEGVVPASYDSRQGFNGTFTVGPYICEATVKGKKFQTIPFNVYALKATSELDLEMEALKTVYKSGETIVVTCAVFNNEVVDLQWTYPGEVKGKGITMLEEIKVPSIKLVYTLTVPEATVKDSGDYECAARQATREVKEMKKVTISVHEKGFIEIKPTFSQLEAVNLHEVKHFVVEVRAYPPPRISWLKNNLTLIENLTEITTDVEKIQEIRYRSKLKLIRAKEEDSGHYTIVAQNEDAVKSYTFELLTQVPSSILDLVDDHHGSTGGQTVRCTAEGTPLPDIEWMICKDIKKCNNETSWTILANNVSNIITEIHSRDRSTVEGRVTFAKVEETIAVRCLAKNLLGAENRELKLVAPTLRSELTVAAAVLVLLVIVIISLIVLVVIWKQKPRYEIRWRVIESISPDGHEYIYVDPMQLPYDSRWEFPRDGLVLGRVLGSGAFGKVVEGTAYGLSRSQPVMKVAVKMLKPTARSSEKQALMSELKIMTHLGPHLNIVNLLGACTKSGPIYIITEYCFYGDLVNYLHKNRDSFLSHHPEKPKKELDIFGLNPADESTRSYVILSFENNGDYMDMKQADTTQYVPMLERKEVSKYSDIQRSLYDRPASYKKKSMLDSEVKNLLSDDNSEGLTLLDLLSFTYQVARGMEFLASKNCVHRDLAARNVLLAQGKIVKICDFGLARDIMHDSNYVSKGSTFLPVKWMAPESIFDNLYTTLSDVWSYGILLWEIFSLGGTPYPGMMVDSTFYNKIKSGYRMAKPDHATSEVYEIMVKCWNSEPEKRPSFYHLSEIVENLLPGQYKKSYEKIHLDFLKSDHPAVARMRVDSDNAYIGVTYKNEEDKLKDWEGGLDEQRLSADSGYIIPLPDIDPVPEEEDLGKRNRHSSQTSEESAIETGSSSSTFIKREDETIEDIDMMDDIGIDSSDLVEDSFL
As to the kind of experiment: In vitro kinase assay (Z'-LYTE, Invitrogen). The following applies: compound at 100 nM, ATP Km apparent, read-out: % of inhibition of the kinase compared to the control. Type of assay: biochemical. On the procedure: as §1, §2, §3

For the next assay, the target named is T6, EGFR (ErbB1) (Homo sapiens, UniProt P00533).
T6 construct: purchased Invitrogen
Briefly: In vitro kinase assay (Z'-LYTE, Invitrogen). Type of assay: biochemical. The conditions noted are these: compound at 100 nM, ATP Km apparent, read-out: % of inhibition of the kinase compared to the control. On the procedure:
as §1, §2, §3

Another assay deals with HepG2 cell line. Briefly: In vitro cell proliferation assay (MTT). It counts as cell-based. The conditions noted are these: Homo sapiens, HepG2, 72 hr, read-out: EC50, anti-proliferative activity. On the procedure: (§4) Cancer cell lines (5×10^3 cells per well) or HUVEC (1×10^4 cells per well) or HRMEC (1×10^4 cells per well) were distributed in 96-well plates and incubating in duplicate with escalating concentrations (10 nM to 3 μM) of compounds for 72 hr. Cell proliferation was measured using MTT (3[4,5-dimethylthiazol-2-yl]-2,5-diphenyltetrazolium bromide). The EC50 values were calculated from sigmoidal dose-response curves utilizing Prism 5.0 from Graph-Pad Software (GraphPad Software, La Jolla, Calif., USA), with values normalized to those of DMSO-treated control wells (0%) and 1% SDS control wells (100%).

In a further assay the test system is HUVEC cells. As to the kind of experiment: In vitro cell proliferation assay (MTT). The following applies: Homo sapiens, 72 hr, read-out: EC50, anti-proliferative activity. It counts as cell-based. On the procedure: as §4
The next assay has as its system HeLa cell line. Briefly: In vitro cell proliferation assay (MTT). Type of assay: cell-based. The conditions noted are these: Homo sapiens, 72 hr, EC50 ≧ 1 μM, read-out: EC50, anti-proliferative activity. On the procedure: as §4
For a further assay, the system named is A549 cell line. As to the kind of experiment: In vitro cell proliferation assay (MTT). It counts as cell-based. The conditions noted are these: Homo sapiens, A549, 72 h, EC50 ≧ 1 μM, read-out: EC50, anti-proliferative activity. On the procedure:
as §4

A further assay has as its system MDA-MB-231 cell line. Briefly: In vitro cell proliferation assay (MTT). It counts as cell-based. The following applies: Homo sapiens, MDA-MB-231, 72 hr, EC50 ≧ 1 μM, read-out: EC50, anti-proliferative activity. On the procedure: as §4

T3 sequence (P15056 whole entry): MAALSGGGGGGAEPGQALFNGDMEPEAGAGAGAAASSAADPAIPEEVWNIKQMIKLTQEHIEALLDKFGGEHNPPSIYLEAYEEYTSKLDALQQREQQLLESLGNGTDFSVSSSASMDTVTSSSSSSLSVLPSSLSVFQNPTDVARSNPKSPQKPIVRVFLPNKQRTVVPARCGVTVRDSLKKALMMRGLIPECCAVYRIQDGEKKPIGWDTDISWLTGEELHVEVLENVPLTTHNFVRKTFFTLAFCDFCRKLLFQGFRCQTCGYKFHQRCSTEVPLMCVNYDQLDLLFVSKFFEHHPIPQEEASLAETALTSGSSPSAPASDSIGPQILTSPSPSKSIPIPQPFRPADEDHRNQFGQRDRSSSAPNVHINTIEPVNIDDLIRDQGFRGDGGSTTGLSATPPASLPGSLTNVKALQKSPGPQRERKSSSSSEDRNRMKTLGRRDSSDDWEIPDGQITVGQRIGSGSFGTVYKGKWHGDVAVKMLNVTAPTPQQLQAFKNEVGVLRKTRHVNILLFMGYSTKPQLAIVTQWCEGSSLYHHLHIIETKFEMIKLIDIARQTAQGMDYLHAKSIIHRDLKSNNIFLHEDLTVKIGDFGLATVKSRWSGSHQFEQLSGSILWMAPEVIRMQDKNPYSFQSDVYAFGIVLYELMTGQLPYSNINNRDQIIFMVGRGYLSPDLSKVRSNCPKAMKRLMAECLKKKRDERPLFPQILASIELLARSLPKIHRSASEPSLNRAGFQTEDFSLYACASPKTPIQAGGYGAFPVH
T1 sequence (P35968 20-1356): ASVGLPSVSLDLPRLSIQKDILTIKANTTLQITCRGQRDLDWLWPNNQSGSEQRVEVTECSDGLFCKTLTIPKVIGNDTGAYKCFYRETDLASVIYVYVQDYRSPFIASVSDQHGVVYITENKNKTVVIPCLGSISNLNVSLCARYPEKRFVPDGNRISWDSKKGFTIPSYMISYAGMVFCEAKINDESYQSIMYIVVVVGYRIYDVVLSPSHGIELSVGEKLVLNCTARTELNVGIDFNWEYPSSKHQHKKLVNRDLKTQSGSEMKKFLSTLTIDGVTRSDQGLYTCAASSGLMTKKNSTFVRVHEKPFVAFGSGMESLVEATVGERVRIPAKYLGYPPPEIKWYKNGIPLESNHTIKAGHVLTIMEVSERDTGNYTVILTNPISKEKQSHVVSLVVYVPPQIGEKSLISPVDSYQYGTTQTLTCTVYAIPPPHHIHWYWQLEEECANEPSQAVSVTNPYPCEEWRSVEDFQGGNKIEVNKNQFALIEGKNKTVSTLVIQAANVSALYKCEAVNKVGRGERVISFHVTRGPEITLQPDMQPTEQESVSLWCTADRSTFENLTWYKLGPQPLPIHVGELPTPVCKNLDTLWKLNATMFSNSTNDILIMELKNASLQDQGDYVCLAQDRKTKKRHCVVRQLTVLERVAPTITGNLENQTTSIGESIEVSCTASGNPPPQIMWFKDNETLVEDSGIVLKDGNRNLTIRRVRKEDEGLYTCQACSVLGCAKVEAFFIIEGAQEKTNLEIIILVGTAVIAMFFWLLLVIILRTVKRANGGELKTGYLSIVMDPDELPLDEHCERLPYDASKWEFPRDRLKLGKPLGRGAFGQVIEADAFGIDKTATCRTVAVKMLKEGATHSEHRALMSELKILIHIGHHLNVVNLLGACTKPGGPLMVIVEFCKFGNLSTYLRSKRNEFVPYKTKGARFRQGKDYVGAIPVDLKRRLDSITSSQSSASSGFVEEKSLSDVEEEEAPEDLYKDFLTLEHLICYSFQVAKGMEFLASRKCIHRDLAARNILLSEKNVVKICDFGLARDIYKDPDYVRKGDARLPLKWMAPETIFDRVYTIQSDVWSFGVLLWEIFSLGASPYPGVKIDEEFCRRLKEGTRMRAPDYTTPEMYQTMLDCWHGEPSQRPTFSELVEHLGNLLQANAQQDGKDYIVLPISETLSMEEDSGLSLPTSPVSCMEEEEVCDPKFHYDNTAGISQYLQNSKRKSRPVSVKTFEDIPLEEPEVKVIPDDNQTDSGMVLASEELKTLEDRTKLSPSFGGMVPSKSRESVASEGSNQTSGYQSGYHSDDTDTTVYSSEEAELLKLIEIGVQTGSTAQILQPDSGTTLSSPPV

The inhibition is the drop in the measured response relative to a control, in per cent. The EC50 is the concentration needed to bring the measured effect to its halfway point. On to `COC(=O)c1cc2cc(CCc3cc(NC(=O)Nc4cccc(C(F)(F)F)c4)ccc3C)cnc2[nH]1` [OR0918, 5-(2-{2-Methyl-5-[3-(3-trifluoromethyl-phenyl)-ureido]-phenyl}-ethyl)-1H-pyrrolo[2,3-b]pyridine-2-carboxylic acid methyl ester], for which the inhibition at 0.1 µM on KDR (VEGFR2) was under 50%; on SRC it was under 50%; on BRAF, under 50%; on FGFR2, under 50%; at PDGFRA (PDGFR alpha), at least 50%; on EGFR (ErbB1), under 50%. The EC50 in the assay with HepG2 cell line (EC50 ≧ 1 μM) and in the assay on HUVEC cells (EC50 ≧ 1 μM) was at least 1000 nM throughout.

Regarding `COC(=O)c1cc2cc(CCc3cc(NC(=O)c4ccc(CN5CCN(C)CC5)c(F)c4)ccc3C)cnc2[nH]1` [OR0920, 5-(2-{5-[3-Fluoro-4-(4-methyl-piperazin-1-ylmethyl)-benzoylamino]-2-methyl-phenyl}-ethyl)-1H-pyrrolo[2,3-b]pyridine-2-carboxylic acid methyl ester], the inhibition at 0.1 µM at KDR (VEGFR2), at BRAF, at FGFR2 and on EGFR (ErbB1) was at least 50% in each case. Further, the EC50 was 100 to 1000 nM with HepG2 cell line (100 nM < EC50 < 1 μM) and at least 1000 nM with HUVEC cells (EC50 ≧ 1 μM).

Regarding `COC(=O)c1cc2cc(CCc3cccc(NC(=O)c4ccc(CN5CCC(N(C)C)C5)c(C(F)(F)F)c4)c3)cnc2[nH]1` (stereo not shown) [OR0922, 5-(2-{5-[4-(3-Dimethylamino-pyrrolidin-1-ylmethyl)-3-trifluoromethyl-benzoylamino]-phenyl}-ethyl)-1H-pyrrolo[2,3-b]pyridine-2-carboxylic acid methyl ester], the inhibition at 0.1 µM at KDR (VEGFR2) was at least 50%; at BRAF it was under 50%; at FGFR2 it was at least 50%; at EGFR (ErbB1) it was at least 50%. Further, the concentration giving a half-maximal response (EC50) in the assay on HepG2 cell line (EC50 ≧ 1 μM) was at least 1000 nM; in the assay with HUVEC cells (100 nM < EC50 < 1 μM) it was 100 to 1000 nM.

Consider `CC(=O)c1cc2cc(CCc3cc(NS(=O)(=O)c4cccc(C(F)(F)F)c4)ccc3C)cnc2[nH]1` [OR0967, N-{3-[2-(2-Acetyl-1H-pyrrolo[2,3-b]pyridin-5-yl)-ethyl]-4-methyl-phenyl}-3-trifluoromethyl-benzenesulfonamide], for which the inhibition at 0.1 µM at KDR (VEGFR2), at SRC, at BRAF, at FGFR2, at PDGFRA (PDGFR alpha) and on EGFR (ErbB1) was under 50% throughout. The 50% effective concentration (EC50) in the assay on HepG2 cell line (EC50 ≧ 1 μM) and in the assay on HUVEC cells (EC50 ≧ 1 μM) was at least 1000 nM in each case.

Regarding `COC(=O)c1cc2cc(CCc3cc(NC(=S)c4ccc(CN5CCN(C)CC5)cc4)ccc3C)cnc2[nH]1` [OR0969, 5-(2-{2-Methyl-5-[4-(4-methyl-piperazin-1-ylmethyl)-thiobenzoylamino]-phenyl}-ethyl)-1H-pyrrolo[2,3-b]pyridine-2-carboxylic acid methyl ester], the inhibition at 0.1 µM was at least 50% at KDR (VEGFR2), under 50% on BRAF, at least 50% at FGFR2 and at least 50% on EGFR (ErbB1). The EC50 in the assay on HepG2 cell line (EC50 ≧ 1 μM) and in the assay on HUVEC cells (EC50 ≧ 1 μM) was at least 1000 nM each time.

Consider `COC(=O)c1cc2cc(CCc3cccc(NC(=O)c4cc[nH]c4)c3)cnc2[nH]1` [OR0976, 5-(2-{3-[(1H-Pyrrole-3-carbonyl)-amino]-phenyl}-ethyl)-1H-pyrrolo[2,3-b]pyridine-2-carboxylic acid methyl ester], for which the inhibition at 0.1 µM on KDR (VEGFR2), on SRC, on BRAF, on FGFR2, at PDGFRA (PDGFR alpha) and on EGFR (ErbB1) was under 50% in each case. The EC50 with HepG2 cell line (EC50 ≧ 1 μM) and in the assay on HUVEC cells (EC50 ≧ 1 μM) was at least 1000 nM each time.

As for `COC(=O)c1cc2cc(CCc3cccc(NC(=O)c4ccc5[nH]nnc5c4)c3)cnc2[nH]1` [OR0977, 5-(2-{3-[(1H-Benzotriazole-5-carbonyl)-amino]-phenyl}-ethyl)-1H-pyrrolo[2,3-b]pyridine-2-carboxylic acid methyl ester], the inhibition at 0.1 µM at KDR (VEGFR2), on SRC, on BRAF, on FGFR2, at PDGFRA (PDGFR alpha) and on EGFR (ErbB1) was under 50% each time. Moreover, the half-maximal effective concentration (EC50) in the assay on HepG2 cell line (EC50 ≧ 1 μM) and in the assay with HUVEC cells (EC50 ≧ 1 μM) was at least 1000 nM each time.

For `COC(=O)c1cc2cc(CCc3cccc(NC(=O)c4ccc5[nH]ccc5c4)c3)cnc2[nH]1` [OR0978, 5-(2-{3-[(1H-Indole-5-carbonyl)-amino]-phenyl}-ethyl)-1H-pyrrolo[2,3-b]pyridine-2-carboxylic acid methyl ester], the inhibition at 0.1 µM at KDR (VEGFR2) is at least 50%; at SRC it was under 50%; on BRAF, under 50%; on FGFR2, under 50%; at PDGFRA (PDGFR alpha) it was at least 50%; at EGFR (ErbB1), under 50%. Further, the half-maximal effective concentration (EC50) in the assay on HepG2 cell line (EC50 ≧ 1 μM) and with HUVEC cells (EC50 ≧ 1 μM) was at least 1000 nM each time.

Take `COC(=O)c1cc2cc(CCc3cccc(NC(=O)c4cncc(C(F)(F)F)c4)c3)cnc2[nH]1` [OR0981, 5-(2-{3-[(5-Trifluoromethyl-pyridine-3-carbonyl)-amino]-phenyl}-ethyl)-1H-pyrrolo[2,3-b]pyridine-2-carboxylic acid methyl ester]: the inhibition at 0.1 µM at KDR (VEGFR2) is at least 50%; on SRC, at least 50%; at BRAF, at least 50%; on FGFR2 it was under 50%; at PDGFRA (PDGFR alpha) it was at least 50%; on EGFR (ErbB1), under 50%. The EC50 with HepG2 cell line (EC50 ≧ 1 μM) and in the assay on HUVEC cells (EC50 ≧ 1 μM) was at least 1000 nM each time.

Regarding `COC(=O)c1cc2cc(C=Cc3cccc(C(=O)Nc4cccc(C(F)(F)F)c4)c3)cnc2[nH]1` [OR1046, 5-{2-[3-(3-Trifluoromethyl-phenylcarbamoyl)-phenyl]-vinyl}-1H-pyrrolo[2,3-b]pyridine-2-carboxylic acid methyl ester], the concentration giving a half-maximal response (EC50) with HeLa cell line, in the assay with A549 cell line, with HepG2 cell line (EC50 ≧ 1 μM), in the assay on HUVEC cells (EC50 ≧ 1 μM) and in the assay with MDA-MB-231 cell line was at least 1000 nM each time.

`Cc1ccc(NC(=O)c2ccc(CN3CCN(C)CC3)c(C(F)(F)F)c2)cc1CCc1cnc2[nH]c(C(=O)O)cc2c1` [OR1054, 5-(2-{2-Methyl-5-[4-(4-methyl-piperazin-1-ylmethyl)-3-trifluoromethyl-benzoylamino]-phenyl}-ethyl)-1H-pyrrolo[2,3-b]pyridine-2-carboxylic acid]: the inhibition at 0.1 µM was at least 50% on KDR (VEGFR2), under 50% on BRAF, at least 50% on FGFR2 and at least 50% at EGFR (ErbB1).

On to `COC(=O)c1cc2cc(CCc3cc(NC(=O)c4ccccc4OC)ccc3Cl)cnc2[nH]1` [OR1064, 5-{2-[2-Chloro-5-(2-methoxy-benzoylamino)-phenyl]-ethyl}-1H-pyrrolo[2,3-b]pyridine-2-carboxylic acid methyl ester], for which the inhibition at 0.1 µM is under 50% at KDR (VEGFR2); under 50% on SRC; under 50% on BRAF; under 50% on FGFR2; at least 50% on PDGFRA (PDGFR alpha); under 50% at EGFR (ErbB1).

Take `CCN(CC)CCNC(=O)c1c(C)[nH]c(/C=C2\C(=O)Nc3ccc(F)cc32)c1C` [Sunitinib, reference compound]: in the assay on HUVEC cells (EC50 ≧ 1 μM), the concentration for a half-maximal effect (EC50) is at least 1000 nM.
